From PubChem BioAssay (NCI) come the findings set out here.

Some test systems named below: 786-0 renal; IGROV1 ovarian; KM12 colon; OVCAR-4 ovarian; OVCAR-8 ovarian; SF-539 CNS; SK-MEL-28 melanoma; UO-31 renal; MCF7 breast.
What all share (test): inhibition of tumour cell growth, NCI panel, 48 h

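96-well plates; 48 h exposure; 5 concentrations. Endpoints by linear interpolation between flanking doses. Not reached: highest tested concentration assigned. Abbreviation: GI50, concentration required for 50% inhibition of growth. Definition used: TGI = concentration required for complete inhibition of growth.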

`O=C(CC(=O)c1cccc([N+](=O)[O-])c1)C(=O)Nc1nc([N+](=O)[O-])cs1`: the TGI in the assay on 786-0 renal, with IGROV1 ovarian, in the assay on KM12 colon, with OVCAR-4 ovarian, in the assay with OVCAR-8 ovarian and with SF-539 CNS was above 100 µM each time. For the same compound, the TGI with SK-MEL-28 melanoma and in the assay with UO-31 renal was above 100 µM throughout.

For `N#CC(C(=O)C(=O)Nc1ccc(Cl)c(Cl)c1)c1ccc(Cl)cc1` (stereo not given), the TGI in the assay with 786-0 renal, in the assay on IGROV1 ovarian, with KM12 colon, in the assay with OVCAR-8 ovarian, with SF-539 CNS and in the assay with SK-MEL-28 melanoma was above 100 µM in each case. Moreover, in the assay on UO-31 renal, the TGI was above 100 µM.

Consider `CC(C)N(C(=O)C12C3C4C5C3C1(C#N)C5C42)C(C)C` (stereo not given), for which the TGI in the assay with 786-0 renal, in the assay with IGROV1 ovarian, in the assay with KM12 colon, in the assay with OVCAR-4 ovarian, in the assay with OVCAR-8 ovarian and in the assay on SF-539 CNS was above 100 µM throughout. Also, the TGI with SK-MEL-28 melanoma and with UO-31 renal was above 100 µM throughout.

Take `COc1ccc2c([nH]c3cc(O)c(C)cc32)c1CC=C(C)C`: the results for the GI50 with 786-0 renal, in the assay with SF-539 CNS and in the assay on UO-31 renal were 4.4 µM, 8.01 µM and 14.3 µM, respectively. For the same compound, the TGI in the assay on 786-0 renal is 8.61 µM; in the assay on IGROV1 ovarian, above 25 µM; in the assay on OVCAR-4 ovarian, above 25 µM; with OVCAR-8 ovarian, 10.4 µM; in the assay with SF-539 CNS, above 25 µM; with SK-MEL-28 melanoma it was above 25 µM. In the assay with UO-31 renal, this compound registered a TGI above 25 µM.

For the compound `Cc1cc2c(=O)c3ccccc3oc2c(C#N)c1C`, the TGI with 786-0 renal, in the assay with IGROV1 ovarian, with KM12 colon, in the assay with MCF7 breast, in the assay with OVCAR-4 ovarian and in the assay with OVCAR-8 ovarian was above 100 µM in each case. Besides, the TGI with SK-MEL-28 melanoma and with UO-31 renal was above 100 µM throughout.

Regarding `NC(=O)OCC(COc1ccc(Cl)cc1)OC(=O)c1cc([N+](=O)[O-])cc([N+](=O)[O-])c1` (stereo not given), the TGI in the assay with 786-0 renal, in the assay on IGROV1 ovarian, in the assay on KM12 colon, with OVCAR-8 ovarian, with SF-539 CNS and with SK-MEL-28 melanoma was above 100 µM throughout. Besides, the TGI in the assay on UO-31 renal is above 100 µM.

As for `COC(=O)C1=C(C)N(NC(=O)c2cccc(Cl)c2)C(C)(O)C12CCOC2=O` (stereo not given), the TGI in the assay with 786-0 renal, with IGROV1 ovarian, in the assay with KM12 colon, in the assay with OVCAR-4 ovarian, with OVCAR-8 ovarian and in the assay on SF-539 CNS was above 100 µM in each case. In addition, the TGI in the assay with SK-MEL-28 melanoma and in the assay with UO-31 renal was above 100 µM throughout.

With `COc1ccc(NC(=O)CC(=O)n2nc(-c3ccccc3)c(N=Nc3ccccc3C)c2-c2ccccc2)cc1`, the TGI is 35.5 µM with 786-0 renal; 46.2 µM in the assay on IGROV1 ovarian; above 100 µM in the assay with KM12 colon; above 100 µM with MCF7 breast; 59.5 µM in the assay on OVCAR-4 ovarian; 66 µM in the assay on OVCAR-8 ovarian. For the same compound, the TGI in the assay with SF-539 CNS is 28.8 µM; in the assay on SK-MEL-28 melanoma it was above 63.2 µM; with UO-31 renal, above 92 µM.

With `C/C=C/C=C\C(=O)C1c2cccc(O)c2C(=O)c2c(O)cc(C)cc21` (stereo not given), the TGI in the assay with 786-0 renal came out at 3.93 µM; with IGROV1 ovarian, 2.91 µM; in the assay on KM12 colon, 1.51 µM; with OVCAR-4 ovarian, 3.3 µM; in the assay on OVCAR-8 ovarian it was 3.19 µM; in the assay on SF-539 CNS, 1.52 µM. Moreover, the TGI in the assay with SK-MEL-28 melanoma amounted to 3.51 µM; in the assay on UO-31 renal, 3.08 µM.

`Cc1cccc2c1ccc1c3occ(C)c3c(=O)oc21`: the GI50 with 786-0 renal was above 100 µM; in the assay on IGROV1 ovarian, above 100 µM; in the assay on KM12 colon, above 100 µM; in the assay on MCF7 breast it was 23.4 µM; in the assay on OVCAR-4 ovarian it was above 100 µM; with OVCAR-8 ovarian it was above 100 µM. Moreover, the GI50 in the assay with SK-MEL-28 melanoma and in the assay with UO-31 renal was above 100 µM in each case. The TGI in the assay with 786-0 renal, in the assay with IGROV1 ovarian, in the assay with KM12 colon, in the assay on MCF7 breast, in the assay with OVCAR-4 ovarian and with OVCAR-8 ovarian was above 100 µM throughout. Besides, the TGI with SK-MEL-28 melanoma and in the assay on UO-31 renal was above 100 µM each time.

For `CNC(=O)OCc1cc2ccncc2c2c1[nH]c1ccccc12`, the TGI in the assay on 786-0 renal, with IGROV1 ovarian, in the assay on KM12 colon, in the assay on OVCAR-4 ovarian, in the assay with OVCAR-8 ovarian and with SF-539 CNS was above 100 µM throughout. In addition, the TGI with SK-MEL-28 melanoma and with UO-31 renal was above 100 µM each time.

For `C[C@]12CC/C(=N\OC(=O)Nc3ccccc3)C=C1CC[C@@H]1C2CC[C@@]2(C)C1CC[C@@H]2OC(=O)Nc1ccccc1` (stereo not given in full), the TGI in the assay with 786-0 renal, in the assay with IGROV1 ovarian, in the assay with KM12 colon, in the assay with OVCAR-4 ovarian, with OVCAR-8 ovarian and in the assay with SF-539 CNS was above 100 µM throughout. Further, the TGI in the assay on UO-31 renal is above 100 µM.

Take `Cc1cn2c(/C=N/N=C(N)N)c(-c3cc(Cl)sc3Cl)nc2s1`: the GI50 in the assay with 786-0 renal was 0.887 µM; in the assay on KM12 colon it was 0.736 µM; in the assay with MCF7 breast, 0.777 µM; with OVCAR-8 ovarian, 1.19 µM. The TGI in the assay with 786-0 renal amounted to 1.83 µM; in the assay with KM12 colon, 1.59 µM; with MCF7 breast, 2.04 µM; with OVCAR-8 ovarian, 2.9 µM.

In the case of `O=C(O)CP(=O)(c1ccccc1)c1ccccc1.O=C(O)CP(=O)(c1ccccc1)c1ccccc1.[Cd]`, the GI50 in the assay with 786-0 renal was 19.3 µM; with IGROV1 ovarian it was 16.6 µM; with KM12 colon, 7.97 µM; in the assay with MCF7 breast, 27.2 µM; in the assay on OVCAR-4 ovarian it was 13.3 µM; in the assay on OVCAR-8 ovarian, 32.7 µM. For the same compound, the values for the GI50 in the assay on SF-539 CNS, in the assay on SK-MEL-28 melanoma and in the assay on UO-31 renal were 11.4 µM, 17.9 µM and 21.6 µM, respectively. Moreover, the TGI was 60 µM with 786-0 renal; 37.1 µM in the assay on IGROV1 ovarian; 22.7 µM in the assay with KM12 colon; above 100 µM in the assay on MCF7 breast; 34.1 µM with OVCAR-4 ovarian; above 100 µM in the assay on OVCAR-8 ovarian. Besides, the TGI in the assay on SF-539 CNS worked out at 26.2 µM; in the assay on SK-MEL-28 melanoma, 41.8 µM; in the assay with UO-31 renal, 49.1 µM.
